Test results from ChEMBL document CHEMBL6153170 (J Med Chem, 2025).
≈ marks a conversion by molar mass, not a printed value. Calls of active or inactive are those of the source. No cut-off for these calls is given here.

Tests used:
[1] = Toxicity in C57 mouse assessed as change in ALB level at 20 mg/kg/day, IG administered for 14 days by heat map analysis; type: organism-based; conditions: in vivo, po, 336 h, time 14 day
B16-F10 [2] = assay: Antitumor activity against mouse B16-F10 cells implanted in C57BL/6 mouse model assessed as tumor growth inhibition at 20 mg/kg/day, ip administered for 14 days relative to control; type: functional; conditions: B16-F10, 336 h, time 14 day, read-out: TGI
[3] = Aqueous solubility of compound incubated for 24 hrs by miniaturized shake flask based HPLC analysis; type: physicochemical; conditions: buffer
[4] = In vivo inhibition of PD-L1 in C57BL/6 mouse model implanted with mouse B16-F10 cells assessed as reduction in PD-L1 protein expression in tumor at 20 mg/kg/day, ip administered for 14 days by Western blot analysis relative to control; type: functional; conditions: C57BL/6, B16-F10, 336 h, time 14 day
[5] = Apparent volume of distribution during terminal phase in male Sprague-Dawley rat at 10 mg/kg, po measured after 48 hrs by triple quadrupole mass spectrometric analysis; type: ADME, organism-based; conditions: in vivo, read-out: Vz/F
B16-F10 [6] = assay: Downregulation of PD-L1 expression level in mouse B16-F10 cells at 0.1 to 2 uM incubated for 24 hrs by Western blot analysis; type: functional, cell-based; conditions: dose 0.1-2 µM
Jurkat [7] = assay: cells; conditions: Homo sapiens, 72 h
[8] = target: Programmed cell death 1 ligand 1 (Mus musculus, UniProt Q9EP73); assay: Binding affinity to C-terminal 6His-tagged recombinant mouse PD-L1 (1 to 238 residues) expressed in HEK293 cells assessed as dissociation constant by SPR analysis
[9] = Toxicity in C57BL/6 mouse model implanted with mouse B16-F10 cells assessed as body weight loss at 20 mg/kg/day, ip administered for 14 days; type: organism-based; conditions: in vivo, 336 h, time 14 day
Jurkat [10] = assay: Cytotoxicity against human Jurkat T cells assessed as reduction in cell viability at 0.01 to 1 uM incubated for 48 hrs; type: functional, cell-based; conditions: dose 0.01-1 µM
[11] = Tmax in male Sprague-Dawley rat at 10 mg/kg, po measured after 48 hrs by triple quadrupole mass spectrometric analysis; type: ADME, organism-based; conditions: in vivo
[12] = MRT (0 to t) in male Sprague-Dawley rat at 2 mg/kg, iv measured after 48 hrs by triple quadrupole mass spectrometric analysis; type: ADME, organism-based; conditions: in vivo
HepG2 [13] = assay: Cytotoxicity against human HepG2 cells assessed as reduction in cell viability at 0.01 to 1 uM incubated for 48 hrs by MTT assay; type: functional, cell-based; conditions: dose 0.01-1 µM
[14] = target: Histone deacetylase 1 (Mus musculus) (UniProt O09106); assay: Inhibition of HDAC1 in mouse B16-F10 cells assessed as increase in acetylated H3 level incubated for 12 hrs by Western blot analysis; type: cell-based
[15] = Half-life in male Sprague-Dawley rat at 10 mg/kg, po measured after 48 hrs by triple quadrupole mass spectrometric analysis; type: ADME, organism-based; conditions: in vivo
B16-F10 [16] = assay: Antitumor activity against mouse B16-F10 cells implanted in C57BL/6 mouse model assessed as reduction in tumor volume at 20 mg/kg/day, ip administered for 14 days; type: functional, organism-based; conditions: time 14.0 day
[17] = AUC (0 to t) in male Sprague-Dawley rat at 10 mg/kg, po measured after 48 hrs by triple quadrupole mass spectrometric analysis; type: ADME, organism-based; conditions: in vivo
B16-F10 [18] = assay: Antitumor activity against mouse B16-F10 cells implanted in C57BL/6 mouse model assessed as tumor growth inhibition at 20 mg/kg/day, ip co-administered with ACY-1215 for 14 days relative to control; type: functional; conditions: B16-F10, 336 h, time 14 day, read-out: TGI
[19] = AUC (0 to infinity) in male Sprague-Dawley rat at 10 mg/kg, po measured after 48 hrs by triple quadrupole mass spectrometric analysis; type: ADME, organism-based; conditions: in vivo
Histone deacetylase 7 = target: T1, Histone deacetylase 7 (Homo sapiens, UniProt Q8WUI4); assay: Inhibition of N-terminal GST-tagged recombinant human HDAC7 (501 to 952 residues) extracted from baculovirus expression system using Ac-Leu-Gly-Lys (Tfa)-AMC as substrate preincubated for 5 mins followed by substrate addition and measured after 30 mins by fluorescence microplate reader analysis
T1 sequence (Q8WUI4 whole entry): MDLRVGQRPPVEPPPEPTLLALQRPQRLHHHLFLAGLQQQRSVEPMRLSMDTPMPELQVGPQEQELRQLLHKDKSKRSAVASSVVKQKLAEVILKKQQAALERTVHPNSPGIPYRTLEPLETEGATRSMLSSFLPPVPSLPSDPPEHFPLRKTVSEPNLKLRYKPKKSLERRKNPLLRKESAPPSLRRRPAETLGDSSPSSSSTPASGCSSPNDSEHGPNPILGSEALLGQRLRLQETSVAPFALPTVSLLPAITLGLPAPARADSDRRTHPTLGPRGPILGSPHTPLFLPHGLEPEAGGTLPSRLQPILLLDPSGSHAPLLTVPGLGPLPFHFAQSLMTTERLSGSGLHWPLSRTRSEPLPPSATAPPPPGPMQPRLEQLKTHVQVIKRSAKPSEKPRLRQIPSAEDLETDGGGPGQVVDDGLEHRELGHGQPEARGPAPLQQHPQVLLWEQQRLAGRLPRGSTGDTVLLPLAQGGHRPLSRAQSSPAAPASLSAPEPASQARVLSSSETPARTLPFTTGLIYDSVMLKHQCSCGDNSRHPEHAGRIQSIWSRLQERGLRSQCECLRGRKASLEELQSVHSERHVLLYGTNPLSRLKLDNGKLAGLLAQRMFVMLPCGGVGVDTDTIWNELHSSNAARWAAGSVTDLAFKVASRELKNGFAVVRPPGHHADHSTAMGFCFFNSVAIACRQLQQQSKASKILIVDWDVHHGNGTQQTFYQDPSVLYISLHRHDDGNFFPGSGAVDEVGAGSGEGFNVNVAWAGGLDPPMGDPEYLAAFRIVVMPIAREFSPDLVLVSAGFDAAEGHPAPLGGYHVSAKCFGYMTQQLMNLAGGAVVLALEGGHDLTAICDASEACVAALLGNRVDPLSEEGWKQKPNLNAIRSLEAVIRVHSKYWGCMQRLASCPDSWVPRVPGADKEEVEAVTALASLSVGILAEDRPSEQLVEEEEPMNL

B16-F10 [20] = assay: Antitumor immunity activity against mouse B16-F10 cells implanted in C57BL/6 mouse model assessed as CD3+ CD4+ T cell percentage in tumor at 20 mg/kg/day, ip co-administered with ACY-1215 for 14 days by flow cytometric analysis (reference value: 0.095 %); type: functional; conditions: time 14 day
[21] = Apparent clearance during terminal phase in male Sprague-Dawley rat at 10 mg/kg, po measured after 48 hrs by triple quadrupole mass spectrometric analysis; type: ADME, organism-based; conditions: in vivo
[22] = Toxicity in C57 mouse assessed as myelosuppression by measuring hematocrit level at 20 mg/kg/day, IG administered for 14 days by heat map analysis; type: organism-based; conditions: in vivo, po, 336 h, time 14 day
[23] = Toxicity in C57 mouse assessed as myelosuppression by measuring MCH level at 20 mg/kg/day, IG administered for 14 days by heat map analysis; type: organism-based; conditions: in vivo, po, 336 h, time 14 day
HepG2 [24] = assay: cells; conditions: Homo sapiens, HepG2, 48 h

Programmed cell death 1 ligand 1, sequence (Q9EP73 whole entry, the tested form may be a part): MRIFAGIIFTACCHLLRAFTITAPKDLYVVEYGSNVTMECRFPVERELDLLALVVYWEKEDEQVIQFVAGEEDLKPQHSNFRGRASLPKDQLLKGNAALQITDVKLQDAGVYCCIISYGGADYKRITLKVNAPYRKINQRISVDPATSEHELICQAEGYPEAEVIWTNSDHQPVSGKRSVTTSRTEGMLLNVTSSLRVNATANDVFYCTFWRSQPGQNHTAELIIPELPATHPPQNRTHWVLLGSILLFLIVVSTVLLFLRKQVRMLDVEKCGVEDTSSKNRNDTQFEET
Histone deacetylase 1 (Mus musculus), sequence (O09106 whole entry): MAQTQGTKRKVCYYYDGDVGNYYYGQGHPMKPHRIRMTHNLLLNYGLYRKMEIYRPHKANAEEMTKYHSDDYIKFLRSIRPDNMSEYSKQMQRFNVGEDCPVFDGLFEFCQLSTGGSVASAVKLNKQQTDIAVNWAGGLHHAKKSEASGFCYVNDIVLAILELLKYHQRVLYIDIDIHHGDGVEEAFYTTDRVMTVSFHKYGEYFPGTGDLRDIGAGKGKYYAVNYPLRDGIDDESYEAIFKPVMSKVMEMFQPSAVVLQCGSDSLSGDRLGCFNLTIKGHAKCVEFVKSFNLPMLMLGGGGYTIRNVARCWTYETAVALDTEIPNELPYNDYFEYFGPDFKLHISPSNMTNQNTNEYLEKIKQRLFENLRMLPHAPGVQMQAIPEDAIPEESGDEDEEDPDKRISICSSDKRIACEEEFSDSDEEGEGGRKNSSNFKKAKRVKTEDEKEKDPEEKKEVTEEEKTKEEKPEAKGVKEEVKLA

## COc1nc(-c2cccc(-c3ccccc3)c2C)ccc1CNCCCCCCC(=O)NO
[1]
  Activity: Non-toxic
B16-F10 [2]
  inhibition in vivo at 20 mg/kg/day: 65.5%
[3]
  solubility thermodynamic at 24 h: 57 µg/mL (≈ 127 µM)
[4]
  inhibition in vivo at 20 mg/kg/day: ~68%
[5]
  Vd/F: 31.9 L/kg
B16-F10 [6]
  Activity: Active
Jurkat [7]
  IC50: > 10 µM
[8]
  Kd: 0.0553 µM
[9]
  Activity: Non-toxic
Jurkat [10]
  Activity: inactive
[11]
  Tmax: 5.55 h
[12]
  MRT last at 48 h: 7.06 h
HepG2 [13]
  Activity: inactive
[14]
  inhibition: inactive
[15]
  half-life: 13.2 h
B16-F10 [16]
  Activity: Active
[17]
  AUC(0-t) at 48 h: 872 ng·h/mL
B16-F10 [18]
  inhibition in vivo at 20 mg/kg/day: 53.9%
[19]
  AUC: 1076.36 ng·h/mL
Histone deacetylase 7
  IC50: > 100 µM
B16-F10 [20]
  Activity: 7.72%
[21]
  CLz/F: 25 mL/min/kg
[22]
  Activity: Non-toxic
[23]
  Activity: Non-toxic
HepG2 [24]
  IC50: 3.4 µM
